From ChEMBL document CHEMBL5126543, “Tandem construction of biological relevant aliphatic 5-membered N-heterocycles” (Eur J Med Chem, 2022)
Converted amounts (≈) assume the structure as drawn. *1 amine or outer side, *2 acyl side, *3 side chain or, on linkers, in order; H or OH if unused. Where a SMILES comes first, the peptide text is derived from it. [ ]: non-standard residue; d: D form. Pro(trans-4-cHex) = O=C(O)[C@@H]1C[C@@H](C2CCCCC2)CN1; Pro(trans-4-Ph) = O=C(O)[C@@H]1C[C@@H](c2ccccc2)CN1; Pro(cis-4-OPh) = O=C(O)[C@@H]1C[C@H](Oc2ccccc2)CN1; Pro(cis-4-CF3) = O=C(O)[C@@H]1C[C@H](C(F)(F)F)CN1; Pro(4R-Bn) = O=C(O)[C@@H]1C[C@@H](Cc2ccccc2)CN1; X1 = CS[C@H]1C[C@@H](C(=O)[*:2])N([*:1])C1; Pro(cis-4-F) = O=C(O)[C@@H]1C[C@H](F)CN1; Pro(4S-NH2) = N[C@@H]1CN[C@H](C(=O)O)C1

Legend:
Pseudomonas aeruginosa = assay: Antimicrobial activity against Pseudomonas aeruginosa ATCC 27853 incubated for 18 to 20 hrs; type: functional; details: time 18-20 hrs
[1] = tested on: Staphylococcus epidermidis; assay: Antimicrobial activity against Staphylococcus epidermidis ATCC 12228 incubated for 18 to 20 hrs; type: functional; details: time 18-20 hrs
Escherichia coli = assay: Antimicrobial activity against Escherichia coli ATCC 25922 incubated for 18 to 20 hrs; type: functional; details: time 18-20 hrs
Priestia megaterium = assay: Antimicrobial activity against Bacillus megaterium Bm11 incubated for 18 to 20 hrs; type: functional; details: time 18-20 hrs
Candida albicans = assay: Antimicrobial activity against Candida albicans ATCC 24433 incubated for 18 to 20 hrs; type: functional; details: time 18-20 hrs
[2] = Cytotoxicity against human MC3T3-E1 cells assessed as decrease in cell viability measured after 36 hrs by WST-1 assay; type: toxicity, cell-based; details: mouse
[3] = Selectivity index, Ratio of IC50 for human MC3T3-E1 cells to IC50 of human PANC-1 cells
MDA-MB-231 = assay: Antitumor activity against human MDA-MB-231 cells assessed as decrease in cell viability measured after 36 hrs by WST-1 assay; type: functional, cell-based; details: MDA-MB-231, 36 h
PANC-1 = assay: Antitumor activity against human PANC-1 cells assessed as decrease in cell viability measured after 36 hrs by WST-1 assay; type: functional, cell-based; details: PANC-1, 36 h
[4] = Selectivity index, Ratio of IC50 for human MC3T3-E1 cells to IC50 of human MDA-MB-231 cells; type: toxicity; details: MC3T3-E1 cells versus MDA-MB-231 cells, read-out: Ratio IC50
Nonstructural protein 5A [5] = target: T1, Nonstructural protein 5A (Hepatitis C virus, UniProt Q5L478); assay: Inhibition of HCV genotype 1b NS5A; parameters: species or system Hepacivirus hominis
T1 sequence (Q5L478 whole entry): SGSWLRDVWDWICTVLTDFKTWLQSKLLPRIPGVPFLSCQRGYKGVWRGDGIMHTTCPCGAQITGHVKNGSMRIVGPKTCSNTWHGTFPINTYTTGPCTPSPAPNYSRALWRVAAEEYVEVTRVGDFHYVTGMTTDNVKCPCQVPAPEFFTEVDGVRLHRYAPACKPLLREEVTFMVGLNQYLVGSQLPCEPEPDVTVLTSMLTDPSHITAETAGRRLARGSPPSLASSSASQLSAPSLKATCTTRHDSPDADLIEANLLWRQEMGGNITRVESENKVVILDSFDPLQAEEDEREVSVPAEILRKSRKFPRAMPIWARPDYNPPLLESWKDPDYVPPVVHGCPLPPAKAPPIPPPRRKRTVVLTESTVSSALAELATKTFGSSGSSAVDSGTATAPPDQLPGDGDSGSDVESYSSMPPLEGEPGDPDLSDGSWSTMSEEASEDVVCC

Nonstructural protein 5A [6] = target: T1, Nonstructural protein 5A; assay: Inhibition of HCV genotype 1a NS5A; parameters: species or system Hepacivirus hominis
Nonstructural protein 5A [7] = target: T1, Nonstructural protein 5A; assay: Inhibition of HCV genotype 2a NS5A; parameters: species or system Hepacivirus hominis
Nonstructural protein 5A [8] = target: T1, Nonstructural protein 5A; assay: Inhibition of HCV genotype 4a NS5A; parameters: species or system Hepacivirus hominis
Nonstructural protein 5A [9] = target: T1, Nonstructural protein 5A; assay: Inhibition of HCV genotype 3a NS5A; parameters: species or system Hepacivirus hominis
Nonstructural protein 5A [10] = target: T1, Nonstructural protein 5A; assay: Inhibition of HCV genotype 5a NS5A; parameters: species or system Hepacivirus hominis
Nonstructural protein 5A [11] = target: T1, Nonstructural protein 5A; assay: Inhibition of HCV genotype 6a NS5A; parameters: species or system Hepacivirus hominis

Compound | MIC (Pseudomonas aeruginosa) [µM] | MIC [1] [µM] | MIC (Escherichia coli) [µM] | MIC (Priestia megaterium) [µM] | MIC (Candida albicans) [µM] | further results
CC[C@H](C)[C@H](NC(=O)[C@H](CCCNC(=N)N)NC(=O)CNC(=O)[C@H](CC(C)C)NC(=O)[C@H](Cc1ccccc1)NC(=O)[C@H](CCCCN)NC(=O)[C@H](CO)NC(=O)[C@H](Cc1ccccc1)NC(=O)[C@H](Cc1c[nH]c2ccccc12)NC(=O)[C@H](CCC(N)=O)NC(=O)[C@@H]1C[C@H](SC)CN1C(=O)[C@@H](NC(=O)[C@@H](N)Cc1ccccc1)C(C)C)C(=O)N[C@@H](CC(C)C)C(N)=O (H-FV[X1]QWFSKFLGRIL-NH2) | 25 (≈ 44.6 µg/mL) | 3.12 (≈ 5.56 µg/mL) | 12.5 (≈ 22.3 µg/mL) | 3.12 (≈ 5.56 µg/mL) | 6.25 (≈ 11.1 µg/mL) | –
CC[C@H](C)[C@H](NC(=O)[C@H](CCCNC(=N)N)NC(=O)CNC(=O)[C@H](CC(C)C)NC(=O)[C@H](Cc1ccccc1)NC(=O)[C@H](CCCCN)NC(=O)[C@H](CO)NC(=O)[C@H](Cc1ccccc1)NC(=O)[C@H](Cc1c[nH]c2ccccc12)NC(=O)[C@H](CCC(N)=O)NC(=O)[C@@H]1C[C@H](C(F)(F)F)CN1C(=O)[C@@H](NC(=O)[C@@H](N)Cc1ccccc1)C(C)C)C(=O)N[C@@H](CC(C)C)C(N)=O (H-FV[Pro(cis-4-CF3)]QWFSKFLGRIL-NH2) | 25 (≈ 45.1 µg/mL) | 3.12 (≈ 5.63 µg/mL) | 12.5 (≈ 22.6 µg/mL) | 3.12 (≈ 5.63 µg/mL) | 12.5 (≈ 22.6 µg/mL) | –
CC[C@H](C)[C@H](NC(=O)[C@H](CCCNC(=N)N)NC(=O)CNC(=O)[C@H](CC(C)C)NC(=O)[C@H](Cc1ccccc1)NC(=O)[C@H](CCCCN)NC(=O)[C@H](CO)NC(=O)[C@H](Cc1ccccc1)NC(=O)[C@H](Cc1c[nH]c2ccccc12)NC(=O)[C@H](CCC(N)=O)NC(=O)[C@@H]1C[C@@H](c2ccccc2)CN1C(=O)[C@@H](NC(=O)[C@@H](N)Cc1ccccc1)C(C)C)C(=O)N[C@@H](CC(C)C)C(N)=O (H-FV[Pro(trans-4-Ph)]QWFSKFLGRIL-NH2) | 50 (≈ 90.7 µg/mL) | 3.12 (≈ 5.66 µg/mL) | 12.5 (≈ 22.7 µg/mL) | 3.12 (≈ 5.66 µg/mL) | 12.5 (≈ 22.7 µg/mL) | –
CCCCCCCCC#CC(c1ccccc1)N1CCCC1 (configuration not stated) | – | – | – | – | – | IC50 at 36 h [2]: 250000 nM; Ratio IC50 [3]: 11.6; IC50 (MDA-MB-231): 74000 nM; IC50 (PANC-1): 21600 nM; selectivity ratio [4]: 3.38
CC[C@H](C)[C@H](NC(=O)[C@H](CCCNC(=N)N)NC(=O)CNC(=O)[C@H](CC(C)C)NC(=O)[C@H](Cc1ccccc1)NC(=O)[C@H](CCCCN)NC(=O)[C@H](CO)NC(=O)[C@H](Cc1ccccc1)NC(=O)[C@H](Cc1c[nH]c2ccccc12)NC(=O)[C@H](CCC(N)=O)NC(=O)[C@@H]1C[C@H](N)CN1C(=O)[C@@H](NC(=O)[C@@H](N)Cc1ccccc1)C(C)C)C(=O)N[C@@H](CC(C)C)C(N)=O (H-FV[Pro(4S-NH2)]QWFSKFLGRIL-NH2) | 3.12 (≈ 5.47 µg/mL) | 3.12 (≈ 5.47 µg/mL) | 3.12 (≈ 5.47 µg/mL) | 3.12 (≈ 5.47 µg/mL) | 12.5 (≈ 21.9 µg/mL) | –
CC[C@H](C)[C@H](NC(=O)[C@H](CCCNC(=N)N)NC(=O)CNC(=O)[C@H](CC(C)C)NC(=O)[C@H](Cc1ccccc1)NC(=O)[C@H](CCCCN)NC(=O)[C@H](CO)NC(=O)[C@H](Cc1ccccc1)NC(=O)[C@H](Cc1c[nH]c2ccccc12)NC(=O)[C@H](CCC(N)=O)NC(=O)[C@@H]1C[C@H](F)CN1C(=O)[C@@H](NC(=O)[C@@H](N)Cc1ccccc1)C(C)C)C(=O)N[C@@H](CC(C)C)C(N)=O (H-FV[Pro(cis-4-F)]QWFSKFLGRIL-NH2) | 12.5 (≈ 21.9 µg/mL) | 3.12 (≈ 5.48 µg/mL) | 12.5 (≈ 21.9 µg/mL) | 3.12 (≈ 5.48 µg/mL) | 12.5 (≈ 21.9 µg/mL) | –
CC[C@H](C)[C@H](NC(=O)[C@H](CCCNC(=N)N)NC(=O)CNC(=O)[C@H](CC(C)C)NC(=O)[C@H](Cc1ccccc1)NC(=O)[C@H](CCCCN)NC(=O)[C@H](CO)NC(=O)[C@H](Cc1ccccc1)NC(=O)[C@H](Cc1c[nH]c2ccccc12)NC(=O)[C@H](CCC(N)=O)NC(=O)[C@@H]1C[C@H](Oc2ccccc2)CN1C(=O)[C@@H](NC(=O)[C@@H](N)Cc1ccccc1)C(C)C)C(=O)N[C@@H](CC(C)C)C(N)=O (H-FV[Pro(cis-4-OPh)]QWFSKFLGRIL-NH2) | 50 (≈ 91.5 µg/mL) | 3.12 (≈ 5.71 µg/mL) | 25 (≈ 45.7 µg/mL) | 3.12 (≈ 5.71 µg/mL) | 12.5 (≈ 22.9 µg/mL) | –
H-FVPQWFSKFLGRIL-NH2 | 25 | 3.12 | 12.5 | 3.12 | 12.5 | –
CC[C@H](C)[C@H](NC(=O)[C@H](CCCNC(=N)N)NC(=O)CNC(=O)[C@H](CC(C)C)NC(=O)[C@H](Cc1ccccc1)NC(=O)[C@H](CCCCN)NC(=O)[C@H](CO)NC(=O)[C@H](Cc1ccccc1)NC(=O)[C@H](Cc1c[nH]c2ccccc12)NC(=O)[C@H](CCC(N)=O)NC(=O)[C@@H]1C[C@@H](Cc2ccccc2)CN1C(=O)[C@@H](NC(=O)[C@@H](N)Cc1ccccc1)C(C)C)C(=O)N[C@@H](CC(C)C)C(N)=O (H-FV[Pro(4R-Bn)]QWFSKFLGRIL-NH2) | 50 (≈ 91.4 µg/mL) | 3.12 (≈ 5.7 µg/mL) | 25 (≈ 45.7 µg/mL) | 3.12 (≈ 5.7 µg/mL) | 25 (≈ 45.7 µg/mL) | –
CC[C@H](C)[C@H](NC(=O)[C@H](CCCNC(=N)N)NC(=O)CNC(=O)[C@H](CC(C)C)NC(=O)[C@H](Cc1ccccc1)NC(=O)[C@H](CCCCN)NC(=O)[C@H](CO)NC(=O)[C@H](Cc1ccccc1)NC(=O)[C@H](Cc1c[nH]c2ccccc12)NC(=O)[C@H](CCC(N)=O)NC(=O)[C@@H]1C[C@@H](C2CCCCC2)CN1C(=O)[C@@H](NC(=O)[C@@H](N)Cc1ccccc1)C(C)C)C(=O)N[C@@H](CC(C)C)C(N)=O (H-FV[Pro(trans-4-cHex)]QWFSKFLGRIL-NH2) | 100 (≈ 182 µg/mL) | 3.12 (≈ 5.68 µg/mL) | 50 (≈ 91 µg/mL) | 3.12 (≈ 5.68 µg/mL) | 25 (≈ 45.5 µg/mL) | –
CCCCCCCCC#CC(c1ccc(C(=O)OC)cc1)N1CCCC1 (configuration not stated) | – | – | – | – | – | IC50 at 36 h [2]: 558000 nM; Ratio IC50 [3]: 41.17; IC50 (MDA-MB-231): 291000 nM; IC50 (PANC-1): 13600 nM; selectivity ratio [4]: 1.91
COC(=O)N[C@H](C(=O)N1CCC[C@H]1c1ncc(-c2ccc3c(c2)CC2c4c(F)cc(-c5cnc([C@@H]6CCCN6C(=O)[C@@H](NC(=O)OC)C(C)C)[nH]5)cc4O[C@@H](c4cnc(C5CC5)s4)N32)[nH]1)C(C)C (some centres not stated) | – | – | – | – | – | EC50 (Nonstructural protein 5A [5]): 0.002 nM; EC50 (Nonstructural protein 5A [6]): 0.0007 nM; EC50 (Nonstructural protein 5A [7]): 0.001 nM; EC50 (Nonstructural protein 5A [8]): 0.0007 nM; EC50 (Nonstructural protein 5A [9]): 0.003 nM; EC50 (Nonstructural protein 5A [10]): 0.0018 nM; EC50 (Nonstructural protein 5A [11]): 0.001 nM
